Reference: patent US10314307B2, “(S)-abscisic acid derivatives for improving plant stress tolerance” (Valent BioSciences Corporation, priority 2015, dated 2019)

Tests used:
Format in all cases: in vivo
[1] = tested on: Cucumber plants cv. ‘Straight Eight’; assay: Cucumber seedling chilling; parameters: key to New Growth Rating: 0 = No new growth; 1 = some new growth; 2 = new leaves; settings: for New Growth Rating / Percent Leaf Area Affected: foliar spray 100 mg/liter, 300 ug/plant, 96 hours at 4° C., rated after 48 hours recovery
Protocol: In these studies, 3′-methyl-(S)-abscisic acid was compared with (S)-abscisic acid on cucumber seedlings for prevention of chilling damage. Cucumber plants cv. ‘Straight Eight’ were grown for two weeks at 25° C. and were size matched into groups of three plants. Each group was sprayed with water+0.05% non-ionic surfactant (control), 100 ppm 3′-methyl-(S)-abscisic acid and surfactant, or 100 ppm S-ABA and surfactant until wet, respectively. For the spray solutions, 3′-methyl-(S)-abscisic acid was dissolved in 0.5% by volume DMSO in water. Following the foliar treatment, plants were held for 48 hours at room temperature, then subjected to 4° C. for 96 hours, and then returned to 25° C. After the plants had been allowed to recover from the chilling treatments for 48 hours, the plants were rated for percent leaf area affected and new growth.

[2] = tested on: Tobacco plants cv. Xanthi-nc; assay: Tobacco plants drought assay; settings: for Percent of plants recovered 3 days after re-watering: re-watered after 18 days of water withdrawal
Protocol: Tobacco plants cv. Xanthi-nc were grown for six weeks at 25° C. and were size matched into groups of four. Each plant group was drench-treated with 10 mL of water containing 0.5% DMSO (control), 0.3 mg, 1.0 mg or 3.0 mg/plant 3′-methyl-(S)-abscisic acid, or 0.3 mg, 1.0 mg or 3.0 mg/plant S-ABA, respectively. The plants were kept in the greenhouse and not watered, simulating drought conditions. After 18 days of water withdrawal, the plants in all treatment groups wilted. At that point, all the plants were watered again. The number of plants that wilted during each day of water withdrawal and the number of plants that recovered following the re-watering were recorded.

[3] = tested on: corn seed of a common inbred parental line; assay: Corn plant emergence after seed treatment; settings: for Additional delay in emergence in comparison with S-ABA: 80 μg/seed rate; for Relative potency of S-ABA, dose required to delay the median emergence time by two days: regression; for Delay in Median Emergence Time Compared to Control / Median Time to Emergence: 20.5° C.
Protocol: Corn seed of a common inbred parental line were treated using standard seed treatment equipment with water (control), 40 μg, 80 μg or 160 μg/seed S-ABA, 10 μg, 20 μg, 40 μg or 80 μg/seed 3′-methyl-(S)-abscisic acid, or 10 μg, 20 μg, 40 μg or 80 μg/seed 3′-propargyl-(S)-abscisic acid. Post treatment, the seeds were planted in 12×3×2″ plastic boxes containing one kilogram of sieved, pre-moistened field soil. Fifty seeds were planted in each box at three centimeter depth and two replicate boxes per treatment at 20.5° C. under constant illumination. Two replications of the experiment were incubated under constant light in a 20.5° C. growth chamber. Emergence counts were recorded almost daily until seedling emergence had ceased (42 days). Daily counts were converted to proportions of the final emergence to estimate the median emergence time for each box.

[4] = tested on: crop plants; assay: Mitigation of drought and chilling stress on crop plants (summary statement)

SMILES | New Growth Rating [1] | Percent Leaf Area Affected [1] [%] | Percent of non-wilted plans on days after drench treatment and drought initiation, Day 8 ([2]; 0.3 mg/plant drench) [%] | Percent of non-wilted plans on days after drench treatment and drought initiation, Day 10 ([2]; 0.3 mg/plant drench) [%] | Percent of non-wilted plans on days after drench treatment and drought initiation, Day 12 ([2]; 0.3 mg/plant drench) [%] | Percent of non-wilted plans on days after drench treatment and drought initiation, Day 14 ([2]; 0.3 mg/plant drench) [%] | Percent of non-wilted plans on days after drench treatment and drought initiation, Day 16 ([2]; 0.3 mg/plant drench) [%] | Percent of non-wilted plans on days after drench treatment and drought initiation, Day 18 ([2]; 0.3 mg/plant drench) [%] | Percent of plants recovered 3 days after re-watering ([2]; 0.3 mg/plant drench) [%] | Percent of non-wilted plans on days after drench treatment and drought initiation, Day 8 ([2]; 1 mg/plant drench) [%] | Percent of non-wilted plans on days after drench treatment and drought initiation, Day 10 ([2]; 1 mg/plant drench) [%] | Percent of non-wilted plans on days after drench treatment and drought initiation, Day 12 ([2]; 1 mg/plant drench) [%] | Percent of non-wilted plans on days after drench treatment and drought initiation, Day 14 ([2]; 1 mg/plant drench) [%] | Percent of non-wilted plans on days after drench treatment and drought initiation, Day 16 ([2]; 1 mg/plant drench) [%] | Percent of non-wilted plans on days after drench treatment and drought initiation, Day 18 ([2]; 1 mg/plant drench) [%] | Percent of plants recovered 3 days after re-watering ([2]; 1 mg/plant drench) [%] | Delay in Median Emergence Time Compared to Control ([3]; seed treatment 40 μg/seed) [days] | Median Time to Emergence ([3]; seed treatment 40 μg/seed) [days] | Delay in Median Emergence Time Compared to Control ([3]; seed treatment 80 μg/seed) [days] | Median Time to Emergence ([3]; seed treatment 80 μg/seed) [days] | other results
CC1=C(C)[C@](O)(/C=C/C(C)=C\C(=O)O)C(C)(C)CC1=O [3′-methyl-(S)-ABA, (2Z,4E)-5-((S)-1-hydroxy-2,3,6,6-tetramethyl-4-oxocyclohex-2-en-1-yl)-3-methylpenta-2,4-dienoic acid] | 2 | 16.67 | 100 | 100 | 83 | 33 | 0 | 0 | 0 | 100 | 100 | 100 | 83 | 67 | 0 | 33 | 11.1 | 16.0 | 13.8 | 18.6 | Mitigating chilling damage compared with S-ABA ([1]; 100 ppm foliar spray, chilling at 4° C.): more effective than S-ABA; Percent of non-wilted plans on days after drench treatment and drought initiation, Day 8 ([2]; 3 mg/plant drench): 100%; Percent of non-wilted plans on days after drench treatment and drought initiation, Day 10 ([2]; 3 mg/plant drench): 100%; Percent of non-wilted plans on days after drench treatment and drought initiation, Day 12 ([2]; 3 mg/plant drench): 100%; Percent of non-wilted plans on days after drench treatment and drought initiation, Day 14 ([2]; 3 mg/plant drench): 100%; Percent of non-wilted plans on days after drench treatment and drought initiation, Day 16 ([2]; 3 mg/plant drench): 83%; Percent of non-wilted plans on days after drench treatment and drought initiation, Day 18 ([2]; 3 mg/plant drench): 0%; Percent of plants recovered 3 days after re-watering ([2]; 3 mg/plant drench): 83%; Percent of plants recovered 3 days after re-watering ([2]; 3 mg/plant drench, listed as 3′-methyl-(S)-abscisic acid): 83%; Drought tolerance compared to the untreated control or the highest amount (3.0 mg) of S-ABA ([2]; lowest amount (0.3 mg)): superior drought tolerance; Additional delay in emergence in comparison with S-ABA [3]: 5.6 calendar days; Relative potency of S-ABA, dose required to delay the median emergence time by two days [3]: 2.2 times; Delay in Median Emergence Time Compared to Control ([3]; seed treatment 10 μg/seed): 4.9 days; Median Time to Emergence ([3]; seed treatment 10 μg/seed): 9.7 days; Delay in Median Emergence Time Compared to Control ([3]; seed treatment 20 μg/seed): 7.9 days; Median Time to Emergence ([3]; seed treatment 20 μg/seed): 12.7 days; Effectiveness relative to S-ABA when applied to crop plants to mitigate drought and chilling stress [4]: from about two to about ten times as effective as S-ABA
C#CCC1=C(C)[C@](O)(/C=C/C(C)=C\C(=O)O)C(C)(C)CC1=O [3′-propargyl-(S)-ABA, (2Z,4E)-5-((S)-1-hydroxy-2,6,6-trimethyl-4-oxo-3-(prop-2-yn-1-yl)cyclohex-2-en-1-yl)-3-methylpenta-2,4-dienoic acid] |  |  |  |  |  |  |  |  |  |  |  |  |  |  |  |  | 16.2 | 21.0 | 22.4 | 27.3 | Additional delay in emergence in comparison with S-ABA [3]: 14.3 calendar days; Relative potency of S-ABA, dose required to delay the median emergence time by two days [3]: 2.6 times; Delay in Median Emergence Time Compared to Control ([3]; seed treatment 10 μg/seed): 8.6 days; Median Time to Emergence ([3]; seed treatment 10 μg/seed): 13.4 days; Delay in Median Emergence Time Compared to Control ([3]; seed treatment 20 μg/seed): 11.3 days; Median Time to Emergence ([3]; seed treatment 20 μg/seed): 16.2 days
CC1=CC(=O)CC(C)(C)[C@@]1(O)/C=C/C(C)=C/C(=O)O [S-ABA, (S)-abscisic acid] | 1 | 33.33 | 100 | 100 | 17 | 0 | 0 | 0 | 0 | 100 | 100 | 50 | 0 | 0 | 0 | 0 | 5.6 | 10.5 | 8.2 | 13.0 | Percent of non-wilted plans on days after drench treatment and drought initiation, Day 8 ([2]; 3 mg/plant drench): 100%; Percent of non-wilted plans on days after drench treatment and drought initiation, Day 10 ([2]; 3 mg/plant drench): 100%; Percent of non-wilted plans on days after drench treatment and drought initiation, Day 12 ([2]; 3 mg/plant drench): 67%; Percent of non-wilted plans on days after drench treatment and drought initiation, Day 14 ([2]; 3 mg/plant drench): 0%; Percent of non-wilted plans on days after drench treatment and drought initiation, Day 16 ([2]; 3 mg/plant drench): 0%; Percent of non-wilted plans on days after drench treatment and drought initiation, Day 18 ([2]; 3 mg/plant drench): 0%; Percent of plants recovered 3 days after re-watering ([2]; 3 mg/plant drench): 0%; Plants recovered once they were watered ([2]; all S-ABA doses (0.3, 1.0, 3.0 mg/plant)): none; Delay in Median Emergence Time Compared to Control ([3]; seed treatment 160 μg/seed): 9.7 days; Median Time to Emergence ([3]; seed treatment 160 μg/seed): 14.6 days
